Here are results for 2 compounds from US7950396B2, “Treatment for otitis externa” (priority 2006, dated 2011).

In test [1] the test system is E. coli. As to the kind of experiment: SEM evaluation of E. coli biofilms after photodisinfection. Format: cell-based, Escherichia coli. The settings on record: about 0.1 wt % methylene blue, about 10 s contact, 665-675 nm for about 30 seconds, Periowave laser. As to the method:
Biofilms heavily colonized with one to three layers of Escherichia coli (E. coli) organisms were contacted with a photosensitizing composition comprising methylene blue at a concentration of about 0.1 wt % for about 10 seconds and then illuminated at a wavelength of about 665 nm to about 675 nm for a period from about 30 seconds using the Periowave™ laser. Thereafter, these biofilms and the controlled E. coli biofilms (e.g., no photodisinfection treatment) were incubated for three hours in 0.9% saline and then fixed in 10% Formalin for scanning electron microscope (SEM) evaluation.

Test [2] concerns E. fecalis. As to the kind of experiment: Photodisinfection of E. fecalis biofilms in vitro (methylene blue plus Periowave laser). Type of test: cell-based, Enterococcus fecalis. Conditions: methylene blue and low power laser. An excerpt:
(§1) Photodisinfection treatments using methods contemplated by the present invention have been tested against MRSA, Escherichia coli (E. coli), and Enterococcus fecalis (E. fecalis) in vitro and reached high levels of disinfection in within seconds to one minute. Photosensitizing composition comprising of methylene blue at various concentrations ranging from about 0.005 wt % to 0.1 wt % was applied to biofilms of MRSA, E. coli and E. fecalis for about ten seconds. These biofilms were then illuminated by a laser light system at a wavelength of about 665 nm to about 675 nm for a period from about 0 seconds to about 60 seconds (e.g., accumulated energy level of about 0 J/cm^2 to about 9 J/cm^2). The laser light system used was the Periowave™ system which includes a low-intensity laser with power at about 240 mW and the optical probe described in PCT Patent Publication No. WO2006115761.

Test [3] deals with E. coli. As to the kind of experiment: Photodisinfection of E. coli biofilms in vitro (methylene blue plus Periowave laser). Format: cell-based, Escherichia coli.
Description: as §1

The test system of test [4] is otitis externa. As to the kind of experiment: Study on patients suffering otitis externa (photodisinfection, Periowave laser). Format: in vivo, human. As to the method:
A study was conducted on patients suffering otitis externa. During the study, a photosensitizing composition comprising of methylene blue at a concentration of about 0.01 wt % was applied using a cotton swab to the treatment site as shown in FIG. 37. Thereafter and referring to FIGS. 38-39, light at a wavelength range from about 665 nm to about 675 nm was applied to the photosensitizing composition located within the treatment site 64 for a period from about 3 minutes to about 5 minutes (3-5 repetitive one minute cycles) using the Periowave™ laser light system.

Test [5] relates to otitis externa. As to the kind of experiment: Photodisinfection of otitis externa treatment site (Examples V to VII). Format: in vivo. Here is the method:
A photosensitizing composition comprising of methylene blue at a concentration of about 0.1 wt % is applied to the otitis externa treatment site. Light at a wavelength range from about 650 nm to about 680 nm is applied to the photosensitizing composition located within the otitis externa treatment site for a period from about 6 minutes to about 10 minutes using a laser with power at about 80 mW. The otitis externa was ameliorated.
A photosensitizing composition comprising of methylene blue at a concentration range of from about 0.001 wt % to about 0.1 wt % is applied to the otitis externa treatment site. Light at a wavelength range from about 650 nm to about 680 nm is applied to the photosensitizing composition located within the treatment site for a period from about 1 minute to about 20 minutes using a laser with power at a range from about 50 mW to about 300 mW. The otitis externa was ameliorated.
A photosensitizing composition comprising of toluidine blue at a concentration range of from about 0.001% wt % to about 0.1 wt % is applied to the otitis externa treatment site. Light at a wavelength range from about 620 nm to about 650 nm is applied to the photosensitizing composition located within the otitis externa treatment site for a period from about 1 minute to about 20 minutes using a laser with power at a range from about 50 mW to about 300 mW. The otitis externa was ameliorated.
For Examples V to VII, it was shown that there is a general inverse relationship between (1) the photosensitizer concentration and (2) the photodisinfection treatment time and/or the amount of power required for the light source. For example, higher concentration of photosensitizer requires less treatment time and/or lower light source power. Conversely, lower concentration of photosensitizer requires longer treatment time and/or higher light source power. Also, less treatment time requires higher concentration of photosensitizer and/or higher light source power.

Test [6] deals with MRSA. As to the kind of experiment: Photodisinfection of MRSA biofilms in vitro (methylene blue plus Periowave laser). Type of test: cell-based, Methicillin-resistant Staphylococcus aureus.
Description: as §1

The test system of test [7] is MRSA. As to the kind of experiment: SEM evaluation of MRSA biofilms after photodisinfection. Type of test: cell-based, Methicillin-resistant Staphylococcus aureus. The settings on record: about 0.1 wt % methylene blue, about 10 s contact, 665-675 nm for about 30 seconds, Periowave laser. As to the method: Biofilms heavily colonized with one to four layers of MRSA organisms were contacted with a photosensitizing composition comprising methylene blue at a concentration of about 0.1 wt % for about 10 seconds and then illuminated at a wavelength of about 665 nm to about 675 nm for a period from about 30 seconds using the Periowave™ laser. Thereafter, these biofilms and the controlled MRSA biofilms (e.g., no photodisinfection treatment) were incubated overnight in 0.9 wt % saline and then fixed in 10 wt % Formalin for scanning electron microscope (SEM) evaluation.

Setting [8] is: at least 0.02 wt % methylene blue, about 10 s contact, laser 665-675 nm for at least 15 seconds (at least 2.25 J/cm^2), 240 mW.
Where [9] appears, read: methylene blue and low power laser.

`CN(C)c1ccc2nc3ccc(=[N+](C)C)cc-3sc2c1` [methylene blue]: the “reduction of E. coli in SEM photograph vs controlled biofilm” value in test [1] is given as “substantial reduction of E. coli”. Further, in test [2], the “elimination of E. Fecalis by photodisinfection” value is “effectively eliminated”. In test [3] (setting [8]), the “reduction of E. coli (logs)” value is on record as “at least three logs”. For the same compound, the “elimination of E. coli by photodisinfection” value in test [3] (setting [9]) is given as “effectively eliminated”. Moreover, the “outcome of otitis externa, many patients” value in test [4] (about 0.01 wt % methylene blue by cotton swab, 665-675 nm for about 3 to 5 minutes (3-5 one minute cycles)) was “ameliorated”. Also, the “outcome of otitis externa, patients with severe otitis externa” value in test [4] (same protocol, about 2 to about 5 additional treatments over about one to two weeks) is “also ameliorated”. The “outcome of otitis externa” value in test [5] (about 0.001 to 0.1 wt %, 650-680 nm for about 1 to 20 minutes, laser about 50 to 300 mW) is “ameliorated”; in test [5] (about 0.1 wt %, 650-680 nm for about 6 to 10 minutes, laser about 80 mW), “ameliorated”. In addition, the “reduction of MRSA (logs)” value in test [6] (setting [8]) is reported as “at least three logs”. For the same compound, in test [6] (setting [9]), the “elimination of MRSA by photodisinfection” value is given as “effectively eliminated”. The “reduction of MRSA in SEM photograph vs controlled biofilm” value in test [7] is reported as “substantial reduction of MRSA”.
Regarding `Cc1cc2nc3ccc(N(C)C)cc3[s+]c2cc1N.[Cl-]` [toluidine blue], the “outcome of otitis externa” value in test [5] (about 0.001 to 0.1 wt %, 620-650 nm for about 1 to 20 minutes, laser about 50 to 300 mW) is “ameliorated”.
